Test results from patent US10821115B2, “Compounds that inhibit Mcl-1 protein” (priority 2017, dated 2020).
Where two headings read alike, the source gives them in different places.

Tests used:
[1] = system: human multiple myeloma cell line, OPM-2; experiment: Cell viability assay (OPM-2 10 FBS), CellTiter-Glo; type: cell-based
Procedure, shortened: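 Serially diluted test compounds are incubated 16 h with cells (3000/well) in RPMI 1640 supplemented with 10% FBS. Viability is then measured by luminescence and IC50 calculated by 4-parameter logistic fit.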

[2] = biological target: recombinant human Mcl-1 (residues 171-327) / Bim interaction (Homo sapiens (Human), UniProt Q07820); experiment: biochemical; type: binding; conditions: 0.1 nM Mcl-1(171-327), 0.05 nM biotin-Bim (51-76); read-out: Mcl-1 HTRF IC50
Chain of recombinant human Mcl-1 (residues 171-327) / Bim interaction (Q07820 171-327): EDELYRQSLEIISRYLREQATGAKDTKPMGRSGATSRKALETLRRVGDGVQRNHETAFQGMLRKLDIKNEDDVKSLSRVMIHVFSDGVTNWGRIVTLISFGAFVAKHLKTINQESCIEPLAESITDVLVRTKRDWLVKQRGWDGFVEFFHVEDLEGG

[3] = Homo sapiens, OPM-2, 16 h, read-out: OPM-2 10% FBS IC50 IP, OPM-2 cells, 10% FBS, 16 h incubation
[4] = read-out: OPM-2 10% FBS IC50 IP, OPM-2 cells, 10% FBS, 16 h incubation

Structure (SMILES) | IC50 [1, 3] | IC50 [2] | IC50 [1, 4]
CO[C@]1(CN2CCc3ncncc3C2)/C=C/C[C@H](C)[C@@H](C)S(=O)(=O)NC(=O)c2ccc3c(c2)N(C[C@@H]2CC[C@H]21)C[C@@]1(CCCc2cc(Cl)ccc21)CO3 [Example 222, (1S,3′R,6′R,7′R,8′E,11′S,12′R)-6-chloro-7′-(7,8-dihydropyrido[4,3-d]pyrimidin-6(5H)-ylmethyl)-7′-methoxy-11′,12′-dimethyl-3,4-dihydro-2H,15′H-spiro[naphthalene-1,22′-[20]oxa[13]thia[1,14]diazatetracyclo [14.7.2.0~3,6~.0~19,24~]pentacosa[8,16,18,24]tetraen]-15′-one 13′,13′-dioxide] | 118 nM | 0.08 nM | –
CO[C@@]1(CN2CCc3ncncc3C2)/C=C/C[C@H](C)[C@@H](C)S(=O)(=O)NC(=O)c2ccc3c(c2)N(C[C@@H]2CC[C@H]21)C[C@@]1(CCCc2cc(Cl)ccc21)CO3 [Example 223, (1S,3′R,6′R,7′S,8′E,11′S,12′R)-6-chloro-7′-(7,8-dihydropyrido[4,3-d]pyrimidin-6(5H)-ylmethyl)-7′-methoxy-11′,12′-dimethyl-3,4-dihydro-2H,15′H-spiro[naphthalene-1,22′-[20]oxa[13]thia[1,14]diazatetracyclo [14.7.2.0~3,6~.0~19,24~]pentacosa[8,16,18,24]tetraen]-15′-one 13′,13′-dioxide] | 258 nM | 0.251 nM | –
CO[C@]1(CN2CC3(C2)CS(=O)(=O)C3)/C=C/C[C@H](C)[C@@H](C)S(=O)(=O)NC(=O)c2ccc3c(c2)N(C[C@@H]2CC[C@H]21)C[C@@]1(CCCc2cc(Cl)ccc21)CO3 [Example 224, (1S,3′R,6′R,7′R,8′E,11′S,12′R)-6-chloro-7′-((2,2-dioxido-2-thia-6-azaspiro[3.3]hept-6-yl)methyl)-7′-methoxy-11′,12′-dimethyl-3,4-dihydro-2H,15′H-spiro[naphthalene-1,22′-[20]oxa[13]thia[1,14]diazatetracyclo [14.7.2.0~3,6~.0~19,24~]pentacosa[8,16,18,24]tetraen]-15′-one 13′,13′-dioxide] | 157 nM | 0.127 nM | –
CO[C@]1(CN2CCN3CCN(S(C)(=O)=O)C[C@@H]3C2)/C=C/C[C@H](C)[C@@H](C)S(=O)(=O)NC(=O)c2ccc3c(c2)N(C[C@@H]2CC[C@H]21)C[C@@]1(CCCc2cc(Cl)ccc21)CO3 [Example 227] | – | 0.207 nM | 131 nM
CO[C@@]1(CN2CCN3CCN(C(=O)CCS(=O)(=O)c4ccccc4)C[C@@H]3C2)/C=C/C[C@H](C)[C@@H](C)S(=O)(=O)NC(=O)c2ccc3c(c2)N(C[C@@H]2CC[C@H]21)C[C@@]1(CCCc2cc(Cl)ccc21)CO3 [Example 233] | – | 0.516 nM | 202 nM
C=CC(=O)N1CCN2CCN(C[C@]3(OC)/C=C/C[C@H](C)[C@@H](C)S(=O)(=O)NC(=O)c4ccc5c(c4)N(C[C@@H]4CC[C@H]43)C[C@@]3(CCCc4cc(Cl)ccc43)CO5)C[C@H]2C1 [Example 234] | – | 0.163 nM | 71 nM
COCC(=O)N1CCN(C[C@]2(OC)/C=C/C[C@H](C)[C@@H](C)S(=O)(=O)NC(=O)c3ccc4c(c3)N(C[C@@H]3CC[C@H]32)C[C@@]2(CCCc3cc(Cl)ccc32)CO4)CC1 [Example 246, (1S,3′R,6′R,7′S,8′E,11′S,12′R)-6-chloro-7′-methoxy-7′-((4-(methoxyacetyl)-1-piperazinyl)methyl)-11′,12′-dimethyl-3,4-dihydro-2H,15′H-spiro[naphthalene-1,22′-[20]oxa[13]thia[1,14]diazatetracyclo [14.7.2.0~3,6~.0~19,24~]pentacosa[8,16,18,24]tetraen]-15′-one 13′,13′-dioxide] | 138 nM | 0.099 nM | –
